Measurements published in PMC3235409 (Bioorganic & medicinal chemistry, 2011).

Columns and labels:
[1] = tested on: caspase-3/7 activity in HT29 cells; assay: Caspase 3/7 activity assay; format: cell-based, human; conditions: HT29, 1.25 – 5 µM, 24 h
[2] = tested on: Akt (phospho-Akt and total Akt) in HT29 cells; assay: Western analysis of phospho-Akt and total Akt; format: cell-based, human; conditions: 24 h, Western blot; for effect on Akt expression and phosphorylation, 1 µM: HT29, 1 µM; for effect on Akt expression and phosphorylation: HT29, 1 or 2 µM (not specified)
[3] = tested on: purified bovine brain tubulin; assay: Fluorescence-based tubulin polymerization assay; format: biochemical; conditions: 10 µM, cell-free
HT29 cells = assay: TUNEL assay; format: cell-based, human; conditions: HT29, 5 µM, 48 h

Row | SMILES | caspase-3/7 activity relative to DMSO vehicle treated cells [1] | effect on Akt expression and phosphorylation, 1 µM [2] | effect on Akt expression and phosphorylation [2] | effect on microtubule formation versus vehicle control [3] | TUNEL staining (DNA fragmentation) (HT29 cells) | inhibition of the rate of microtubule polymerization ([3]; 1 h at 37 °C) | effect on Akt expression and phosphorylation, 2 µM ([2]; HT29, 2 µM)
1 | O=C1C(=O)N(Cc2ccc(CN=C=S)cc2)c2c(Br)cc(Br)cc21 [Compound 13, 5,7-Dibromo-N-(p-isothiocyanatomethylbenzyl)isatin] | significant dose dependent increases in caspase-3/7 activity | reduced Akt protein levels and strongly suppressed the phosphorylation of Akt | Akt levels were reduced but the phosphorylation was virtually eliminated |  |  |  | 
2 | CC(=O)O[C@H]1C(=O)[C@@]2(C)[C@H]([C@H](OC(=O)c3ccccc3)[C@]3(O)C[C@H](OC(=O)[C@H](O)[C@@H](NC(=O)c4ccccc4)c4ccccc4)C(C)=C1C3(C)C)[C@]1(OC(C)=O)CO[C@@H]1C[C@@H]2O [paclitaxel] |  |  |  | stabilized microtubules |  |  | 
3 | N#CSCc1ccc(CN2C(=O)C(=O)c3cc(Br)cc(Br)c32)cc1 [Compound 11, 5,7-Dibromo-N-(p-thiocyanomethylbenzyl)isatin] | significant dose dependent increases in caspase-3/7 activity | reduced Akt protein levels and strongly suppressed the phosphorylation of Akt | Akt levels were reduced but the phosphorylation was virtually eliminated |  | significant number of TUNEL-positive colon cancer cells | about 71% | 
4 | O=C1C(=O)N(CCCN=C=S)c2c(Br)cc(Br)cc21 [Compound 6, 5,7-Dibromo-N-(3’-isothiocyanatopropyl)isatin] | significant dose dependent increases in caspase-3/7 activity | very little effect on either expression or phosphorylation of Akt |  |  | significant number of TUNEL-positive colon cancer cells |  | both levels and phosphorylation state of Akt were reduced
5 | N#C[Se]CCCN1C(=O)C(=O)c2cc(Br)cc(Br)c21 [Compound 5, 5,7-Dibromo-N-(3’-selenocyanatopropyl)isatin] | significant dose dependent increases in caspase-3/7 activity |  |  |  |  |  | 
6 | CC[C@]1(O)C[C@@H]2CN(CCc3c([nH]c4ccccc34)[C@@](C(=O)OC)(c3cc4c(cc3OC)N(C)[C@H]3[C@@](O)(C(=O)OC)[C@H](OC(C)=O)[C@]5(CC)C=CCN6CC[C@]43[C@@H]65)C2)C1.O=S(=O)(O)O [Vinblastine, vinblastine sulfate] |  |  |  | strongly inhibited microtubule formation |  |  | 
